# Laboratory results published in patent US20060030616A1, “Anhydride modified cantharidin analogues useful in the treatment of cancer” (priority 1998, published 2006).
# Key:
# L1210 cells = assay: Cell cycle analysis, flow cytometry of propidium iodide stained cells; format: cell-based, murine
# Experimental: (§1) The cells are fixed in 70% ethanol and stored at −20° C. until analysis is performed (1-2 weeks). After fixing, the cells are pelleted and incubated in PBS containing propidium iodide ([…]) and RNase A (200 mg/ml) for at least 30 min at room temperature. The samples (2×10^4 events) are analysed using a Becton Dickson FACScan, fluorescence is collected in fluorescence detector 2 (FL2), filter 575/30 nm band pass. Cell cycle distribution is assessed using Cell Quest software (Becton Dickson).
# (§2) The ability of the protein phosphatase inhibitors to abrogate the G1 or G2 checkpoint of the cell cycle may be determined by cell cycle analysis using flow cytometry. Briefly, asynchronous cell cultures are harvested 18 h after 6 Gy irradiation and/or 12 h incubation with the protein phosphatase inhibitor. Depending upon the p53 status of the cell line, radiation treatment alone will induce arrest in either G1 and/or G2 phase of the cell cycle.
# (§3) Data shown in Table 2 and FIG. 4 show the cell cycle response of L1210, HL60, HT29 and HCT116 cells to cantharidin and the new cantharidin analogues MK-2 and MK-4 after 12 h exposure. In summary, cantharidin and MK-2 produced a similar response and induced G2 arrest in all four cell lines tested. […] HL60 and HCT116 cells. […] The magnitude of the cell cycle arrest induced by these drugs directly correlated with their cytotoxicity in the respective cell lines. […] The cytotoxicity of the […]
# SW480 cells = assay: MTT cytotoxicity assay, 72 h; format: cell-based, human; details: Homo sapiens, 72 h; SW480, p53 mt; read-out: IC50 (mean ± SE) after 72 h continuous exposure
# Experimental: (§4) Cells in a subconfluent phase are transferred to 96-well microtitre plates. L1210 cells are plated at a density of 1000 cells/well in 100 μl medium, while all other cell lines are plated at a density of 2000-25000 cells/well. The cells are left for 24 h prior to treatment to ensure exponential growth has been achieved, 24 h after plating (day 0), 100 μl of phosphatase inhibitor is added to each well, control wells received 100 μl of medium only. Drug exposure time is 72 h (day 3). The effect of phosphatase inhibition is tested in triplicate over a concentration range of […]−1×10^−8 M. Growth inhibitory effects are evaluated using the MTT assay and absorbance read at […]. The IC50 is the drug concentration at which cell growth is 50% inhibited based on the difference of optical density on day 0 and day 3 of drug exposure. Cytotoxicity is evaluated using a spectrophotometric assay which determines the percentage of cell growth following exposure of the cells to various concentrations of the phosphatase inhibitors for a period of 72 hours. The subsequent dose response curve is used to calculate IC50 values (the drug concentration at which cell growth is 50% inhibited).
# (§5) Anti-cancer screening of the protein phosphatase inhibitors is assessed using the MTT assay. This assay determines cell viability by the ability of mitochondrial dehydrogenase to produce formazan crystals from 3-(4,5-dimethylthiazol-2-yl)-2,5-diphenyltetrazolium bromide. The viable cell number/well is directly proportional to the production of formazan, which following solubilization, can be measured spectrophotometrically (540 nm). This technique is also used by the National Cancer Institute to screen for new anticancer agents.
# (§6) As described herein a number of cantharidin analogues have been synthesised and tested for their anticancer activity in nine cancer cell lines using the MTT assay after 72 h exposure. These new analogues are shown in FIG. 2 and have been designated MK-1 through to MK-9.
# HL60 cells [1] = assay: MTT cytotoxicity assay, 72 h; format: cell-based, human; details: Homo sapiens, HL-60, 72 h; HL60, p53 nul; read-out: IC50 (mean ± SE) after 72 h continuous exposure
# Experimental: as §4, §5, §6
# WiDr cells = assay: MTT cytotoxicity assay, 72 h; format: cell-based, human; details: Homo sapiens, 72 h, p53 mt, read-out: IC50 (mean ± SE) after 72 h continuous exposure
# Experimental: as §4, §5, §6
# HT29 cells [2] = assay: MTT cytotoxicity assay, 72 h; format: cell-based, human; details: Homo sapiens, HT-29, 72 h; HT29, p53 mt; read-out: IC50 (mean ± SE) after 72 h continuous exposure
# Experimental: as §4, §5, §6
# HCT116 cells = assay: MTT cytotoxicity assay, 72 h; format: cell-based, human; details: Homo sapiens, HCT-116, 72 h; HCT116, p53 wt; read-out: IC50 (mean ± SE) after 72 h continuous exposure
# Experimental: as §4, §5, §6
# ADDP cells = assay: MTT cytotoxicity assay, 72 h; format: cell-based, human; details: Homo sapiens, 72 h, p53 mt, read-out: IC50 (mean ± SE) after 72 h continuous exposure
# Experimental: as §4, §5, §6
# 143B cells = assay: MTT cytotoxicity assay, 72 h; format: cell-based, human; details: Homo sapiens, 72 h, p53 mt, read-out: IC50 (mean ± SE) after 72 h continuous exposure
# Experimental: as §4, §5, §6
# HL60 cells [3] = assay: Cell cycle analysis, flow cytometry of propidium iodide stained cells; format: cell-based, human; details: for Cell Cycle Distribution, G1 / Cell Cycle Distribution, G2 + M / Cell Cycle Distribution, S / Cell Cycle Distribution, sub G1 / Cell cycle remark: 12 h
# Experimental: as §1, §2, §3
# HT29 cells [4] = assay: as above; format: cell-based, human; details: for Cell Cycle Distribution, G1 / Cell Cycle Distribution, G2 + M / Cell Cycle Distribution, S / Cell Cycle Distribution, sub G1 / Cell cycle remark: 12 h
# Experimental: as §1, §2, §3
structure (smiles),measurement,setting,value
"C[C@@]12C(=O)OC(=O)[C@]1(C)[C@H]1CC[C@@H]2O1 [Cantharidin, exo.exo-2.3-dimethyl-7-oxobicyclo[2.2.1]heptane-2,3-dicarboxylic acid anhydride]","Cell Cycle Distribution, G1","L1210 cells; L1210, 1 μM, 12 h",45.8 percentage of total
same,"Cell Cycle Distribution, G2 + M","L1210 cells; L1210, 1 μM, 12 h",21.6 percentage of total
same,"Cell Cycle Distribution, S","L1210 cells; L1210, 1 μM, 12 h",33.7 percentage of total
same,"Cell Cycle Distribution, sub G1","L1210 cells; L1210, 1 μM, 12 h",0.5 percentage of total
same,"Cell Cycle Distribution, G1","L1210 cells; L1210, 5 μM, 12 h",46.5 percentage of total
same,"Cell Cycle Distribution, G2 + M","L1210 cells; L1210, 5 μM, 12 h",21.9 percentage of total
same,"Cell Cycle Distribution, S","L1210 cells; L1210, 5 μM, 12 h",32.6 percentage of total
same,"Cell Cycle Distribution, sub G1","L1210 cells; L1210, 5 μM, 12 h",0.6 percentage of total
same,"Cell Cycle Distribution, G1","L1210 cells; L1210, 10 μM, 12 h",49.1 percentage of total
same,"Cell Cycle Distribution, G2 + M","L1210 cells; L1210, 10 μM, 12 h",18.9 percentage of total
same,"Cell Cycle Distribution, S","L1210 cells; L1210, 10 μM, 12 h",33.0 percentage of total
same,"Cell Cycle Distribution, sub G1","L1210 cells; L1210, 10 μM, 12 h",0.5 percentage of total
same,"Cell Cycle Distribution, G1","L1210 cells; L1210, 50 μM, 12 h",22.0 percentage of total
same,"Cell Cycle Distribution, G2 + M","L1210 cells; L1210, 50 μM, 12 h",50.6 percentage of total
same,"Cell Cycle Distribution, S","L1210 cells; L1210, 50 μM, 12 h",27.8 percentage of total
same,"Cell Cycle Distribution, sub G1","L1210 cells; L1210, 50 μM, 12 h",1.9 percentage of total
same,Cell cycle remark,"L1210 cells; L1210, 50 μM, 12 h",G2 arrest
same,Cell cycle response,"L1210 cells; L1210, 12 h exposure",G2 arrest
same,IC50,SW480 cells,17.5 µM
same,IC50,HL60 cells [1],13 µM
same,IC50,WiDr cells,6.1 ± 0.5 µM
same,IC50,HT29 cells [2],6.4 ± 0.7 µM
same,IC50,HCT116 cells,12 µM
same,IC50,ADDP cells,12 ± 0.8 µM
same,IC50,143B cells,10.2 ± 1.2 µM
same,"Cell Cycle Distribution, G1","HL60 cells [3]; HL60, 1 μM",44.0 percentage of total
same,"Cell Cycle Distribution, G2 + M","HL60 cells [3]; HL60, 1 μM",29.7 percentage of total
same,"Cell Cycle Distribution, S","HL60 cells [3]; HL60, 1 μM",26.1 percentage of total
same,"Cell Cycle Distribution, sub G1","HL60 cells [3]; HL60, 1 μM",1.5 percentage of total
same,"Cell Cycle Distribution, G1","HL60 cells [3]; HL60, 5 μM",41.4 percentage of total
same,"Cell Cycle Distribution, G2 + M","HL60 cells [3]; HL60, 5 μM",30.6 percentage of total
same,"Cell Cycle Distribution, S","HL60 cells [3]; HL60, 5 μM",27.7 percentage of total
same,"Cell Cycle Distribution, sub G1","HL60 cells [3]; HL60, 5 μM",1.7 percentage of total
same,"Cell Cycle Distribution, G1","HL60 cells [3]; HL60, 10 μM",41.8 percentage of total
same,"Cell Cycle Distribution, G2 + M","HL60 cells [3]; HL60, 10 μM",30.4 percentage of total
same,"Cell Cycle Distribution, S","HL60 cells [3]; HL60, 10 μM",27.5 percentage of total
same,"Cell Cycle Distribution, sub G1","HL60 cells [3]; HL60, 10 μM",1.7 percentage of total
same,Cell cycle remark,"HL60 cells [3]; HL60, 10 μM",G2 arrest
same,"Cell Cycle Distribution, G1","HL60 cells [3]; HL60, 50 μM",16.2 percentage of total
same,"Cell Cycle Distribution, G2 + M","HL60 cells [3]; HL60, 50 μM",34.7 percentage of total
same,"Cell Cycle Distribution, S","HL60 cells [3]; HL60, 50 μM",31.6 percentage of total
same,"Cell Cycle Distribution, sub G1","HL60 cells [3]; HL60, 50 μM",19.3 percentage of total
same,Cell cycle remark,"HL60 cells [3]; HL60, 50 μM",Cell Death
same,Cell cycle response,"HL60 cells [3]; HL60, 12 h exposure",G2 arrest
same,"Cell Cycle Distribution, G1","HT29 cells [4]; HT29, 1 μM",46.2 percentage of total
same,"Cell Cycle Distribution, G2 + M","HT29 cells [4]; HT29, 1 μM",37.4 percentage of total
same,"Cell Cycle Distribution, S","HT29 cells [4]; HT29, 1 μM",7.8 percentage of total
same,"Cell Cycle Distribution, sub G1","HT29 cells [4]; HT29, 1 μM",9.0 percentage of total
same,"Cell Cycle Distribution, G1","HT29 cells [4]; HT29, 5 μM",47.4 percentage of total
same,"Cell Cycle Distribution, G2 + M","HT29 cells [4]; HT29, 5 μM",39.8 percentage of total
same,"Cell Cycle Distribution, S","HT29 cells [4]; HT29, 5 μM",9.3 percentage of total
same,"Cell Cycle Distribution, sub G1","HT29 cells [4]; HT29, 5 μM",4.0 percentage of total
same,"Cell Cycle Distribution, G1","HT29 cells [4]; HT29, 10 μM",42.7 percentage of total
same,"Cell Cycle Distribution, G2 + M","HT29 cells [4]; HT29, 10 μM",40.3 percentage of total
same,"Cell Cycle Distribution, S","HT29 cells [4]; HT29, 10 μM",14.6 percentage of total
same,"Cell Cycle Distribution, sub G1","HT29 cells [4]; HT29, 10 μM",2.8 percentage of total
same,Cell cycle remark,"HT29 cells [4]; HT29, 10 μM",G2 arrest
same,"Cell Cycle Distribution, G1","HT29 cells [4]; HT29, 50 μM",46.0 percentage of total
same,"Cell Cycle Distribution, G2 + M","HT29 cells [4]; HT29, 50 μM",26.0 percentage of total
same,"Cell Cycle Distribution, S","HT29 cells [4]; HT29, 50 μM",14.7 percentage of total
same,"Cell Cycle Distribution, sub G1","HT29 cells [4]; HT29, 50 μM",15.1 percentage of total
same,Cell cycle remark,"HT29 cells [4]; HT29, 50 μM",Cell Death
same,Cell cycle response,"HT29 cells [4]; HT29, 12 h exposure",G2 arrest
